Test results reported in patent publication US11866429B2, “Heteroaryl-biphenyl amines for the treatment of PD-L1 diseases” (CHEMOCENTRYX, INC., priority 2019, dated 2024).

What follows are compounds tested against human PD-L1 (Homo sapiens (Human), UniProt Q9NZQ7) (assay: Enzyme-Linked Immunosorbent Assay (ELISA), PD-1/PD-L1 binding). Conditions: plates coated with human PD-L1; Human PD-1 and biotin added; absorbance at 450 nm.
Method: 96 Well plates were coated with 1 μg/mL of human PD-L1 (obtained from R&D) in PBS overnight at 4° C. The wells were then blocked with 2% BSA in PBS (W/V) with 0.05% TWEEN-20 for 1 hour at 37° C. The plates were washed 3 times with PBS/0.05% TWEEN-20 and the compounds were serial diluted (1:5) in dilution medium and added to the ELISA plates. Human PD-1 and biotin 0.3 μg/mL (ACRO Biosystems) were added and incubated for 1 hour at 37° C. then washed 3 times with PBS/0.05% TWEEN-20. A second block was performed with 2% BSA in PBS (W/V)/0.05% TWEEN-20 for 10 min at 37° C. and the plates were washed 3 times with PBS/0.05% TWEEN-20. Streptavidin-HRP was added for 1 hour at 37° C. then the plates were washed 3 times with PBS/0.05% TWEEN-20. TMB substrate was added and reacted for 20 min at 37° C. A stop solution (2 N aqueous […]) was added. The absorbance was read at 450 nm using a micro-plate spectrophotometer.

human PD-L1, sequence (Q9NZQ7 19-239): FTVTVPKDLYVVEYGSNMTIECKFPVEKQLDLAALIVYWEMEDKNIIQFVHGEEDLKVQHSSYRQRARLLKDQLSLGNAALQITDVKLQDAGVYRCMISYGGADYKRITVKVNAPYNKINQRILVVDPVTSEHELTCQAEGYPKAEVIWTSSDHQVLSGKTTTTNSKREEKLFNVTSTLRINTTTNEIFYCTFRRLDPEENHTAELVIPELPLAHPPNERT

Row | IC50 [nM] | SMILES
1 | < 10 | COc1nc(-c2cccc(-c3cccc(Nc4nc(C)nc5cccnc45)c3C)c2Cl)ccc1CNC[C@H]1CCC(=O)N1 [Compound 1.026]
2 | < 10 | Cc1nc(Nc2cccc(-c3cccc(-c4ccc(CNC[C@@H]5CCC(=O)N5)c(C(F)(F)F)n4)c3Cl)c2C)c2ncccc2n1 [Compound 1.020]
3 | < 10 | COc1nc(-c2cccc(-c3cccc(Nc4nc(C)nc5cccnc45)c3C)c2Cl)ccc1CN1CC2(CNC(=O)N2)C1 [Compound 1.008]
4 | < 10 | CCc1nc(-c2cccc(-c3cccc(Nc4nc(C)nc5cccnc45)c3C)c2Cl)ccc1CN[C@@H]1CCOC[C@@H]1O [Compound 1.045]
5 | < 10 | COc1nc(-c2cccc(-c3cccc(Nc4nccc5nccnc45)c3C)c2Cl)ccc1CNC[C@@H]1CCC(=O)N1 [Compound 1.078]
6 | < 10 | COc1nc(-c2cccc(-c3cccc(Nc4nccc5nccnc45)c3C)c2Cl)ccc1CN1CC(O)C1 [Compound 1.077]
7 | < 10 | COc1nc(-c2cccc(-c3cccc(Nc4nc(C)nc5cccnc45)c3C)c2Cl)ccc1CN[C@@H]1CNC(=O)C1 [Compound 1.055]
8 | < 10 | CCc1nc(-c2cccc(-c3cccc(Nc4nccc5nccnc45)c3Cl)c2Cl)cnc1CNC[C@@H]1CCC(=O)N1 [Compound 1.080]
9 | 10 to 1000 | Cc1cc2nccnc2c(Nc2cccc(-c3cccc(-c4ccc(CNC[C@@H]5CCC(=O)N5)c(O)n4)c3Cl)c2C)n1 [Compound 1.067]
10 | < 10 | COc1nc(-c2cccc(-c3cccc(Nc4nccc5nccnc45)c3Cl)c2Cl)cnc1CNC[C@@H]1CCC(=O)N1 [Compound 1.004]
11 | < 10 | COc1nc(-c2cccc(-c3cccc(Nc4nc(C)nc5cccnc45)c3C)c2Cl)ccc1CNC[C@@H]1CCC(=O)N1 [Compound 1.073]
12 | < 10 | COc1nc(-c2cccc(-c3cccc(Nc4nccc5nccnc45)c3Cl)c2Cl)cnc1CN1CC(C(=O)O)C1 [Compound 1.002]
13 | < 10 | COc1nc(-c2cccc(-c3cccc(Nc4nc(C)nc5cccnc45)c3C)c2Cl)ccc1CNCCO [Compound 1.057]
14 | < 10 | COc1nc(-c2cccc(-c3cccc(Nc4nc(C)nc5cccnc45)c3C)c2Cl)ccc1CNC(CO)(CO)CO [Compound 1.062]
15 | < 10 | COc1nc(-c2cccc(-c3cccc(Nc4nccc5nccnc45)c3Cl)c2Cl)ccc1CN1CC(C)(C(=O)O)C1 [Compound 1.083]
16 | < 10 | COc1nc(-c2cccc(-c3cccc(Nc4nc(C)nc5cccnc45)c3C)c2C#N)ccc1CN[C@@H]1CCOC[C@@H]1O [Compound 1.010]
17 | < 10 | COc1nc(-c2cccc(-c3cccc(Nc4nc(C)nc5cccnc45)c3C)c2Cl)ccc1CN1CC[C@@](C)(O)C1 [Compound 1.034]
18 | < 10 | COc1nc(-c2cccc(-c3cccc(Nc4nc(C)nc5cccnc45)c3C)c2Cl)ccc1CN1CC(C)(O)C1 [Compound 1.007]
19 | < 10 | COc1nc(-c2cccc(-c3cccc(Nc4nc(C)nc5cccnc45)c3C)c2Cl)ccc1CNCC(=O)O [Compound 1.031]
20 | < 10 | COc1nc(-c2cccc(-c3cccc(Nc4nc(C)nc5cccnc45)c3C)c2Cl)ccc1CNCC(C)(C)CO [Compound 1.051]
21 | < 10 | CCc1nc(-c2cccc(-c3cccc(Nc4nc(C)nc5cccnc45)c3C)c2Cl)ccc1CNC[C@@H]1CCC(=O)N1 [Compound 1.046]
22 | < 10 | COc1nc(-c2cccc(-c3cccc(Nc4nc(C)nc5cccnc45)c3C)c2Cl)ccc1CNC(C)C [Compound 1.029]
